Data taken from US20080275018A1, “ANTIBACTERIAL AMIDE-MACROCYCLES V” (AiCuris GmbH & Co. KG, priority 2005, published 2008).
Counter-ions that a name gives are not always drawn.

Experiments:
S. aureus 133 [1] = assay: Systemic infection with S. aureus 133 (mouse sepsis model); assay type: in vivo, mouse (female CFW1); conditions: i.p. infection with S. aureus 133, i.v. therapy 30 minutes after infection, survival recorded for 6 days
Experimental: For this purpose, S. aureus 133 cells are cultured overnight in BH broth (Oxoid, Germany). The overnight culture was diluted 1:100 in fresh BH broth and expanded for 3 hours. The bacteria which are in the logarithmic phase of growth are centrifuged and washed twice with a buffered physiological saline solution. A cell suspension in saline solution with an extinction of 50 units is then adjusted in a photometer (Dr Lange LP 2W). After a dilution step (1:15), this suspension is mixed 1:1 with a 10% mucine suspension. 0.2 ml of this infection solution is administered i.p. per 20 g of mouse. This corresponds to a cell count of about 1-2×10^6 microbes/mouse. The i.v. therapy takes place 30 minutes after the infection. Female CFW1 mice are used for the infection experiment. The survival of the animals is recorded for 6 days. The animal model is adjusted so that untreated animals die within 24 h after the infection.

S. aureus 133 [2] = assay: Minimum inhibitory concentration (MIC), S. aureus 133; assay type: cell-based, Staphylococcus aureus; conditions: Staphylococcus aureus, 133, read-out: MIC S. aureus 133
Experimental: (§1) The minimum inhibitory concentration (MIC) is the minimum concentration of an antibiotic with which the growth of a test microbe is inhibited over 18-24 h. The inhibitor concentration can in these cases be determined by standard microbiological methods (see, for example, The National Committee for Clinical Laboratory Standards. Methods for dilution antimicrobial susceptibility tests for bacteria that grow aerobically; approved standard-fifth edition. NCCLS document M7-A5 [ISBN 1-56238-394-9]. NCCLS, 940 West Valley Road, Suite 1400, Wayne, Pa. 19087-1898 USA, 2000). The test substances are thereby initially provided in 1:2 dilution series into 96-well round-bottom microtiter plates (Greiner) double-concentrated in 50 μl of test medium. The aerobically growing test microbes (e.g. staphylococci and enterococci), which are incubated overnight on Columbia blood agar plates (Becton-Dickinson), are, after resuspension in 0.9% NaCl, adjusted to a microbe count of about 5×10^7 microbes/ml and then diluted 1:150 in cation-adjusted MH medium (test medium). 50 μL of this suspension are pipetted onto the test preparations provided in the microtiter plates. The cultures are incubated at 37° C. for 18-24 hours. For microaerophilically growing microbes (e.g. streptococci), 2% lysed horse blood in the final concentration is added to the medium and the cultures are incubated in the presence of 5% CO2. The lowest substance concentration in each case at which no visible bacterial growth occurs any longer is defined as the MIC and is reported in μg/ml.
(§2) The minimum inhibitory concentration (MIC) is the minimum concentration of an antibiotic with which the growth of a test microbe is inhibited over 18-24 h. The inhibitor concentration can in these cases be determined by standard microbiological methods (see, for example, The National Committee for Clinical Laboratory Standards. Methods for dilution antimicrobial susceptibility tests for bacteria that grow aerobically; approved standard-fifth edition. NCCLS document M7-A5 [ISBN 1-56238-394-9]. NCCLS, 940 West Valley Road, Suite 1400, Wayne, Pa. 19087-1898 USA, 2000). The MIC of the compounds of the invention is determined in the liquid dilution test on the 96-well microtiter plate scale. The bacterial microbes are cultivated in a minimal medium (18.5 mM Na2HPO4, 5.7 mM KH2PO4, 9.3 mM NH4Cl, 2.8 mM MgSO4, 17.1 mM NaCl, 0.033 μg/ml thiamine hydrochloride, 1.2 μg/ml nicotinic acid, 0.003 μg/ml biotin, 1% glucose, 25 μg/ml of each proteinogenic amino acid with the exception of phenylalanine; [H.-P. Kroll; unpublished]) with the addition of 0.4% BH broth (test medium). In the case of Enterococcus faecium L4001, heat-inactivated fetal calf serum (FCS; GibcoBRL, Germany) is added to the test medium in a final concentration of 10%. Overnight cultures of the test microbes are diluted to an OD578 of 0.001 (to 0.01 in the case of enterococci) in fresh test medium, and incubated 1:1 with dilutions of the test substances (1:2 dilution steps) in test medium ([…]). The cultures are incubated at 37° C. for 18-24 hours; enterococci in the presence of 5% CO2.
(§3) The lowest substance concentration in each case at which no visible bacterial growth occurs any longer is defined as the MIC.
(§4) The minimum inhibitory concentration (MIC) is the minimum concentration of an antibiotic with which the growth of a test microbe is inhibited over 18-24 h. The inhibitor concentration can in these cases be determined by standard microbiological methods with modified medium in an agar dilution test (see, for example, The National Committee for Clinical Laboratory Standards. Methods for dilution antimicrobial susceptibility tests for bacteria that grow aerobically; approved standard-fifth edition. NCCLS document M7-A5 [ISBN 1-56238-394-9]. NCCLS, 940 West Valley Road, Suite 1400, Wayne, Pa. 19087-1898 USA, 2000). The bacterial microbes are cultivated on 1.5% agar plates which contain 20% defibrinated horse blood. […]

E. faecium L4001 = assay: Minimum inhibitory concentration (MIC), E. faecium L4001; assay type: cell-based, Enterococcus faecium; conditions: Enterococcus faecium, L4001, read-out: MIC E. faecium L4001
Experimental: as §2, §3

S. aureus T17 = assay: Minimum inhibitory concentration (MIC), biphenomycin-resistant S. aureus T17; assay type: cell-based, Staphylococcus aureus; conditions: Staphylococcus aureus; biphenomycin-resistant S. aureus T17
Experimental: as §1, §2, §3, §4

[3] = target: S. aureus 133 Translation; assay: S. aureus in vitro transcription-translation assay (firefly luciferase, S30 extract); assay type: biochemical; conditions: 50% inhibition of the translation of firefly luciferase
From the text: For the construction of a reporter plasmid which can be used in an in vitro transcription-translation assay from S. aureus the plasmid pBESTluc (Promega Corporation, USA) is used. The E. coli tac promoter present in this plasmid in front of the firefly luciferase is replaced by the capA1 promoter with corresponding Shine-Dalgarno sequence from S. aureus. The primers CAPFor 5′-[…]-[…] GCCA-3′ and CAPRev 5′-[…]-3′ are used for this. The primer CAPFor contains the capA1 promoter, the ribosome binding site and the 5′ region of the luciferase gene. After PCR using pBESTluc as template it is possible to isolate a PCR product which contains the firefly luciferase gene with the fused capA1 promoter. This is, after restriction with ClaI and HindIII, ligated into the vector pBESTluc which has likewise been digested with ClaI and HindIII. The resulting plasmid pla can be replicated in E. coli and be used as template in the S. aureus in vitro transcription-translation test.
Six litres of BHI medium are inoculated with a 250 ml overnight culture of an S. aureus Strain and allowed to grow at 37° C. until the OD600 nm is 2-4. The cells are harvested by centrifugation and washed in 500 ml of cold buffer A (10 mM Tris acetate, pH 8.0, 14 mM magnesium acetate, 1 mM DTT, 1 M KCl). After renewed centrifugation, the cells are washed in 250 ml of cold buffer A with 50 mM KCl, and the resulting pellets are frozen at −20° C. for 60 min. The pellets are thawed on ice in 30 to 60 min and taken up to a total volume of 99 ml in buffer B (10 mM Tris acetate, pH 8.0, 20 mM magnesium acetate, 1 mM DTT, 50 mM KCl). 1.5 ml portions of lysostaphin (0.8 mg/ml) in buffer B are provided in 3 precooled centrifuge cups and each mixed with 33 ml of the cell suspension. The samples are incubated at 37° C., shaking occasionally, for 45 to 60 min, before 150 μl of a 0.5 M DTT solution are added. The lysed cells are centrifuged at 30 000×g and 4° C. for 30 min. The cell pellet is taken up in buffer B and then centrifuged again under the same conditions, and the collected supernatants are combined. The supernatants are centrifuged again under the same conditions, and 0.25 volumes of buffer C (670 mM Tris acetate, pH 8.0, 20 mM magnesium acetate, 7 mM Na3 phosphoenolpyruvate, 7 mM DTT, 5.5 mM ATP, 70 μM amino acids (complete from Promega), 75 μg of pyruvate kinase (Sigma, Germany)/ml are added to the upper ⅔ of the supernatant. The samples are incubated at 37° C. for 30 min. The supernatants are dialysed against 2 l of dialysis buffer (10 mM Tris acetate, pH 8.0, 14 mM magnesium acetate, 1 mM DTT, 60 mM potassium acetate) in a dialysis tube with a 3500 Da cut-off with one buffer change at 4° C. overnight. The dialysate is concentrated to a protein concentration of about 10 mg/ml by
covering the dialysis tube with cold PEG 8000 powder (Sigma, Germany) at 4° C. The S30 extracts can be stored in aliquots at −70° C.
The inhibition of protein biosynthesis of the compounds can be shown in an in vitro transcription-translation assay. The assay is based on the cell-free transcription and translation of firefly luciferase using the reporter plasmid pla as template and cell-free S30 extracts obtained from S. aureus. The activity of the resulting luciferase can be detected by luminescence measurement.
The amount of S30 extract or plasmid pla to be employed must be tested anew for each preparation in order to ensure an optimal concentration in the test. […] of the substance to be tested, dissolved in 5% DMSO, are introduced into an MTP. Then […] of a suitably concentrated plasmid solution pla are added. […]

In the case of `NCCC[C@H](N)CNC(=O)CNC(=O)[C@@H]1Cc2cccc(c2)-c2ccc(O)c(c2)C[C@H](N)C(=O)N[C@@H](C[C@@H](O)CN)C(=O)N1` [Example 2, (8S,11S,14S)-14-Amino-11-[(2R)-3-amino-2-hydroxypropyl]-N-(2-{[(2S)-2,5-diaminopentyl]-amino}-2-oxoethyl)-17-hydroxy-10,13-dioxo-9,12-diazatricyclo[14.3.1.1^2,6]henicosa-1(20),2(21),3,5,16,18-hexaene-8-carboxamide tetrahydrochloride], the “therapeutic effect ED100” value (S. aureus 133 [1]) is reported as 1.25 mg/kg, the MIC (S. aureus 133 [2]) is reported as 1 µg/mL and the MIC (E. faecium L4001) is reported as 2 µg/mL. For the same compound, the MIC (S. aureus T17) was 1 µg/mL and the IC50 [3] was 70 nM.
